Consider one molecule from US9005651B2, “Sustained drug delivery system” (Tohoku University, priority 2009, dated 2015).

A short description of series [1]: Low molecular weight drug (FA) slow release from PEGDM:TEGDM sheets. In kind it is physicochemical. To be noted: PEGDM:TEGDM 100:0 to 0:100, capsules in PBS. How it is done: Sheets having changed mixing ratios of PEGDM (Mn 750) and TEGDM (Mw 286.3) were prepared to evaluate their low molecular weight drug slow-releasing capability. The low molecular weight drug used sodium fluorescein (FA, a fluorescent contrast agent clinically used) as a model. PEG sheets were prepared in the 6 patterns of PEGDM:TEGDM=100:0, 95:5, 90:10, 80:20, 50:50, and 0:100; FA was capsulated; and the capsules were immersed in PBS to measure the fluorescence intensity at regular intervals. […] The slow-releasing capability was irrespective of the presence of collagen particles.

Series [2] in a line: Implantation of capsule on the sclera of rabbit's eye (fluorescence of hydatoid, fundus camera, tissue). It is filed as in vivo. To be noted: 3 days after implantation. How it is done:
A capsule (the collagen particle concentration of its porous PEG sheet: 500 mg/ml) packed with a PEG pellet of FA was implanted on the sclera of the eye of rabbits. One eye of each rabbit was used as a non-implantation control. The conjunctiva was incised 5 mm and the capsule was implanted therethrough into 2 to 15 mm of the corneal limbus. The capsule was fixed by suture. The conjunctiva was finally sutured to terminate the implantation. The hydatoid (100 μl) was collected every other week and the fluorescence intensity thereof was measured using a fluorescence plate reader. Using a fluorescence camera, the fluorochrome in the device implanted on the sclera and the distribution of the pigment slowly released were photographed. […] In FIG. 22, the fluorescences of the cell nucleus (blue fluorescence) and the model drug (green fluorescence) are observed. In FIG. 22, the mark * represents the position in which the PEG capsule was present. […] When the drug passes through RP, the drug is fed to RE. Because RP has a high barrier function, the pigment stops here and is concentrated.

Take `O=C([O-])c1ccccc1-c1c2ccc(=O)cc-2oc2cc([O-])ccc12.[Na+].[Na+]` [FA, sodium fluorescein]: in series [1], the “FA slow-releasing capability versus PEGDM:TEGDM ratio” value is recorded as “increased mixing ratio of TEGDM suppressed the FA slow-releasing capability”. Also, the tissue fluorescence distribution entry in series [2] is “strong fluorescence was observed in the sclera (SC) and the subretina (RP)”.
